In ChEMBL document CHEMBL3785013, “Novel morpholinoquinoline nucleus clubbed with pyrazoline scaffolds: Synthesis, antibacterial, antitubercular and antimalarial activities” (Eur J Med Chem, 2016):
Converted amounts (≈) assume the structure as drawn.

Tests used:
Aspergillus fumigatus = assay: Antifungal activity against Aspergillus fumigatus MTCC 3008 after 24 to 48 hrs by broth microdilution method; type: functional
[1] = tested on: Mycobacterium tuberculosis; assay: Antituberculosis activity against Mycobacterium tuberculosis H37Rv after 2 to 4 weeks by Lowensteine-Jensen method; type: functional
Salmonella typhi = assay: Antibacterial activity against Salmonella typhi MTCC 98 after 24 to 48 hrs by broth microdilution method; type: functional, Salmonella enterica subsp. enterica serovar Typhi; conditions: Salmonella enterica
Clostridium tetani = assay: Antibacterial activity against Clostridium tetani MTCC 449 after 24 to 48 hrs by broth microdilution method; type: functional
[2] = tested on: Mycobacterium tuberculosis; assay: Antituberculosis activity against Mycobacterium tuberculosis H37Rv at 250 ug/ml incubated for 24 hrs measured after 2 to 4 weeks by Lowensteine-Jensen method; type: functional
Streptococcus pneumoniae = assay: Antibacterial activity against Streptococcus pneumoniae MTCC 1936 after 24 to 48 hrs by broth microdilution method; type: functional
Bacillus subtilis = assay: Antibacterial activity against Bacillus subtilis MTCC 441 after 24 to 48 hrs by broth microdilution method; type: functional
Plasmodium falciparum = assay: Antimalarial activity against Plasmodium falciparum after 48 hrs; type: functional, organism-based
Escherichia coli = assay: Antibacterial activity against Escherichia coli MTCC 443 after 24 to 48 hrs by broth microdilution method; type: functional
Vibrio cholerae = assay: Antibacterial activity against Vibrio cholerae MTCC 3906 after 24 to 48 hrs by broth microdilution method; type: functional
Candida albicans = assay: Antifungal activity against Candida albicans MTCC 227 after 24 to 48 hrs by broth microdilution method; type: functional
[3] = tested on: Schizosaccharomyces pombe; assay: Cytotoxicity against Schizosaccharomyces pombe at 2.5 to 12.5 ug/ml after 17 hrs by trypan blue exclusion method; type: organism-based; conditions: in vivo

| Compound | MIC (Aspergillus fumigatus) [µM] | MIC [1] [µM] | MIC (Salmonella typhi) [µM] | MIC (Clostridium tetani) [µM] | inhibition at 250 µg/mL [2] [%] | MIC (Streptococcus pneumoniae) [µM] | MIC (Bacillus subtilis) [µM] | IC50 (Plasmodium falciparum) [µM] | MIC (Escherichia coli) [µM] | MIC (Vibrio cholerae) [µM] | MIC (Candida albicans) [µM] | Activity [3] |
| --- | --- | --- | --- | --- | --- | --- | --- | --- | --- | --- | --- | --- |
| CC(=O)N1N=C(c2ccc(Cl)cc2)CC1c1cc2ccccc2nc1N1CCOCC1 (stereo not given) | 1150 (≈ 500 µg/mL) | 143 (≈ 62.2 µg/mL) | 574 (≈ 250 µg/mL) | 149 (≈ 64.8 µg/mL) | 96 | 1150 (≈ 500 µg/mL) | 229 (≈ 99.6 µg/mL) | 2.87 | 229 (≈ 99.6 µg/mL) | 229 (≈ 99.6 µg/mL) | 1150 (≈ 500 µg/mL) |  |
| C=C[C@H]1CN2CC[C@H]1C[C@H]2[C@H](O)c1ccnc2ccc(OC)cc12 [QUININE] |  |  |  |  |  |  |  | 0.826 |  |  |  |  |
| O=C(N[C@H](CO)[C@H](O)c1ccc([N+](=O)[O-])cc1)C(Cl)Cl [CHLORAMPHENICOL] |  |  | 154 (≈ 49.8 µg/mL) | 154 (≈ 49.8 µg/mL) |  | 154 (≈ 49.8 µg/mL) | 154 (≈ 49.8 µg/mL) |  | 154 (≈ 49.8 µg/mL) | 154 (≈ 49.8 µg/mL) |  |  |
| COc1ccc(C2=NN(C(N)=S)C(c3cc4ccccc4nc3N3CCOCC3)C2)cc1 (stereo not given) | 223 (≈ 99.8 µg/mL) |  | 223 (≈ 99.8 µg/mL) | 446 (≈ 200 µg/mL) | 63 | 223 (≈ 99.8 µg/mL) | 446 (≈ 200 µg/mL) | 3.24 | 558 (≈ 250 µg/mL) | 558 (≈ 250 µg/mL) | 1120 (≈ 500 µg/mL) |  |
| CCn1cc(C(=O)O)c(=O)c2cc(F)c(N3CCNCC3)cc21 [NORFLOXACIN] |  |  | 31 (≈ 9.9 µg/mL) | 313 (≈ 100 µg/mL) |  | 31 (≈ 9.9 µg/mL) | 310 (≈ 99 µg/mL) |  | 31 (≈ 9.9 µg/mL) | 31 (≈ 9.9 µg/mL) |  |  |
| Fc1ccc(C2=NN(c3ccc(F)cc3)C(c3cc4ccccc4nc3N3CCOCC3)C2)cc1 (stereo not given) | 2120 (≈ 1000 µg/mL) |  | 212 (≈ 99.8 µg/mL) | 132 (≈ 62.1 µg/mL) | 48 | 265 (≈ 125 µg/mL) | 212 (≈ 99.8 µg/mL) | 3.42 | 265 (≈ 125 µg/mL) | 132 (≈ 62.1 µg/mL) | 212 (≈ 99.8 µg/mL) |  |
| COC1=CC(=O)C[C@@H](C)[C@]12Oc1c(Cl)c(OC)cc(OC)c1C2=O [GRISEOFULVIN] | 283 (≈ 99.8 µg/mL) |  |  |  |  |  |  |  |  |  | 1150 (≈ 405 µg/mL) |  |
| CC1(C)S[C@@H]2[C@H](NC(=O)[C@H](N)c3ccccc3)C(=O)N2[C@H]1C(=O)O [AMPICILLIN] |  |  | 286 (≈ 99.9 µg/mL) | 715 (≈ 250 µg/mL) |  | 286 (≈ 99.9 µg/mL) | 715 (≈ 250 µg/mL) |  | 286 (≈ 99.9 µg/mL) | 286 (≈ 99.9 µg/mL) |  |  |
| COc1ccc(C2=NN(C=O)C(c3cc4ccccc4nc3N3CCOCC3)C2)cc1 (stereo not given) | 2400 (≈ 1000 µg/mL) |  | 240 (≈ 100 µg/mL) | 1200 (≈ 500 µg/mL) | 36 | 240 (≈ 100 µg/mL) | 600 (≈ 250 µg/mL) | 1.87 | 480 (≈ 200 µg/mL) | 480 (≈ 200 µg/mL) | 1200 (≈ 500 µg/mL) |  |
| NC(=S)N1N=C(c2ccc(F)cc2)CC1c1cc2ccccc2nc1N1CCOCC1 (stereo not given) | 1150 (≈ 500 µg/mL) |  | 143 (≈ 62.3 µg/mL) | 1150 (≈ 500 µg/mL) | 54 | 229 (≈ 99.7 µg/mL) | 1150 (≈ 500 µg/mL) | 1.84 | 574 (≈ 250 µg/mL) | 574 (≈ 250 µg/mL) | 229 (≈ 99.7 µg/mL) |  |
| NC(=S)N1N=C(c2ccc(Cl)cc2)CC1c1cc2ccccc2nc1N1CCOCC1 (stereo not given) | 221 (≈ 99.9 µg/mL) |  | 553 (≈ 250 µg/mL) | 221 (≈ 99.9 µg/mL) | 45 | 553 (≈ 250 µg/mL) | 221 (≈ 99.9 µg/mL) | 4.65 | 442 (≈ 200 µg/mL) | 221 (≈ 99.9 µg/mL) | 2210 (≈ 1000 µg/mL) |  |
| NNC(=O)c1ccncc1 [ISONIAZID] |  | 1 (≈ 0.137 µg/mL) |  |  |  |  |  |  |  |  |  |  |
| CC(=O)N1N=C(c2ccc(Br)cc2)CC1c1cc2ccccc2nc1N1CCOCC1 (stereo not given) | 208 (≈ 99.7 µg/mL) |  | 1040 (≈ 500 µg/mL) | 208 (≈ 99.7 µg/mL) | 29 | 417 (≈ 200 µg/mL) | 1040 (≈ 500 µg/mL) | 0.018 | 521 (≈ 250 µg/mL) | 1040 (≈ 500 µg/mL) | 2090 (≈ 1000 µg/mL) | Toxic |
| Fc1ccc(N2N=C(c3ccc(Cl)cc3)CC2c2cc3ccccc3nc2N2CCOCC2)cc1 (stereo not given) | 205 (≈ 99.8 µg/mL) |  | 410 (≈ 200 µg/mL) | 1030 (≈ 500 µg/mL) | 24 | 1030 (≈ 500 µg/mL) | 410 (≈ 200 µg/mL) | 1.79 | 205 (≈ 99.8 µg/mL) | 513 (≈ 250 µg/mL) | 2050 (≈ 1000 µg/mL) |  |
| COc1ccc(C2=NN(C(C)=O)C(c3cc4ccccc4nc3N3CCOCC3)C2)cc1 (stereo not given) | 1160 (≈ 500 µg/mL) |  | 1160 (≈ 500 µg/mL) | 1160 (≈ 500 µg/mL) | 45 | 145 (≈ 62.4 µg/mL) | 232 (≈ 99.9 µg/mL) | 0.034 | 232 (≈ 99.9 µg/mL) | 1160 (≈ 500 µg/mL) | 2320 (≈ 1000 µg/mL) | Toxic |
| O=C(O)c1cn(C2CC2)c2cc(N3CCNCC3)c(F)cc2c1=O [CIPROFLOXACIN] |  |  | 75 (≈ 24.9 µg/mL) |  |  | 150 (≈ 49.7 µg/mL) | 150 (≈ 49.7 µg/mL) |  | 75 (≈ 24.9 µg/mL) | 75 (≈ 24.9 µg/mL) |  |  |
| CO[C@H]1/C=C/O[C@@]2(C)Oc3c(C)c(O)c4c(O)c(c(/C=N/N5CCN(C)CC5)c(O)c4c3C2=O)NC(=O)/C(C)=C\C=C\[C@H](C)[C@H](O)[C@@H](C)[C@@H](O)[C@@H](C)[C@H](OC(C)=O)[C@@H]1C [RIFAMPIN] |  | 48 (≈ 39.5 µg/mL) |  |  | 98 |  |  |  |  |  |  |  |
| O=CN1N=C(c2ccc(F)cc2)CC1c1cc2ccccc2nc1N1CCOCC1 (stereo not given) | > 2470 | 247 (≈ 99.9 µg/mL) | 1240 (≈ 500 µg/mL) | 1240 (≈ 500 µg/mL) | 93 | 247 (≈ 99.9 µg/mL) | 154 (≈ 62.3 µg/mL) | 1.04 | 494 (≈ 200 µg/mL) | 618 (≈ 250 µg/mL) | 2470 (≈ 1000 µg/mL) |  |
| NYSTATIN | 107 |  |  |  |  |  |  |  |  |  | 107 |  |
| CC(=O)N1N=C(c2ccc(F)cc2)CC1c1cc2ccccc2nc1N1CCOCC1 (stereo not given) | 1190 (≈ 500 µg/mL) |  | 238 (≈ 99.6 µg/mL) | 238 (≈ 99.6 µg/mL) | 32 | 238 (≈ 99.6 µg/mL) | 597 (≈ 250 µg/mL) | 1.67 | 597 (≈ 250 µg/mL) | 597 (≈ 250 µg/mL) | 597 (≈ 250 µg/mL) |  |
